According to patent US6686394B1, “Aryl-chloro-ethyl ureas” (Sovar, Societe en Commandite, priority 1999, dated 2004):

How the values were obtained:
[1] = tested on: L1210 (mouse leukemia cells); experiment: In-vitro cytotoxicity, MTT assay (Example 1); assay type: cell-based; settings: L1210, 120 h, Table I, four to five days in the presence of drugs
Method: (§1) The conventional evaluation method proposed by the American National Cancer Institute was used. The method measures effectiveness of an anti-cancer drug based on IC50 which symbolizes the drug concentration in μM at which the drug achieves the inhibition of proliferation of a given line of cancer cells by a factor of one half when compared to the normal proliferation of the same line of cancer cells in the same growth media
(§2) CAU were tested on several cell lines including human non-hormone-dependant breast cancer cells (MDA-MB-231), and mouse leukemia (L1210). MDA-MB-231. These cell lines were obtained from the American Type Culture Collection (Bethesda, Md., USA). Cytotoxicity of CAU derivatives was tested and compared to the effect of chlorambucil and carmustine.
(§3) Tumor cells were grown in RPMI-1640 medium supplemented with 10% fetal calf serum, 2 mM glutamine and 64 U/mL of gentamycin. Cells were routinely passaged at 90% confluence.
(§4) Five thousand cells (100 μl) were seeded in 96 well's plate and incubated for one day at 37° C. under a humidified atmosphere, in presence of 5% CO2. […]
(§5) Cell's survival was evaluated by colorimetric assay using MTT, according to a modification of the procedure reported by Carmichael and coil. […] The plates were then shaken for 15 minutes and the absorbance read at 570 nm with a Behring Elisa Procesor II (Behring, Marburg, Germany). […]

[2] = tested on: MDA-MB-231 (human breast cancer cells); experiment: In-vitro cytotoxicity, MTT assay (Example 1); assay type: cell-based; settings: MDA-MB-231, 120 h, Table I, four to five days in the presence of drugs
Method: as §1, §2, §3, §4, §5

[3] = tested on: B16-F0; experiment: Cytotoxicity assay G50, MTT or resazurin (Example 29); assay type: cell-based; settings: Mus musculus, B16F0; cell line B16-F0
Method: (§6) Cell culture. Tumor cell lines (B16-F0, Caco-2, DU-145, HT-29, MDA-MB-231 and other cell lines described so far in the patent application) were obtained from the American Type Culture Collection (ATCC HTB-26; Bethesda, Md.). Cells were grown in RPMI 1640 medium supplemented with 10% fetal bovine serum (Hyclone, Road Logan, Utah) and were cultured in a humidified atmosphere at 37° C. in 5% CO2.
(§7) Drugs: All drugs were dissolved in DMSO and the final concentration of DMSO in the culture medium was maintained at 0.5% (v/v).
(§8) Cytotoxiciy assays. At day-1, tumor cells in suspension in 100 μl were plated in microtiter plates (96 wells). On day-0, tumor cells were treated by addition of escalating concentrations of the drug (100 μl solution). On that day, the number of living cells was determined in wells that were untreated. The number of living cells is determined using either MTT or resazurin assays. Growth inhibition activity of these compounds was expressed as the concentration of CAU inhibiting cell growth by 50% G50 in the following table
(§9) The MTT assay was as described above in Example 1. The Resazurin assay was performed as follows:
(§10) Aspirate the supernatant (cell suspension: centrifuge first)
(§11) Add 100 μL NaCl 0.9% (saline)
(§12) Add 50 μL RZ (resazurin 125 μg/ml/PBS: RPMI without FBS; 1:4)
(§13) Collect fluorescence data at different time.

[4] = tested on: Caco-2; experiment: as above; assay type: cell-based; settings: Homo sapiens; cell line Caco-2
Method: as §6, §7, §8, §9, §10, §11, §12, §13

[5] = tested on: DU-145; experiment: as above; assay type: cell-based; settings: Homo sapiens; cell line DU-145
Method: as §6, §7, §8, §9, §10, §11, §12, §13

[6] = tested on: HT-29; experiment: as above; assay type: cell-based; settings: Homo sapiens; cell line HT-29
Method: as §6, §7, §8, §9, §10, §11, §12, §13

[7] = tested on: MDA-MB-231; experiment: as above; assay type: cell-based; settings: Homo sapiens; cell line MDA-MB-231
Method: as §6, §7, §8, §9, §10, §11, §12, §13

[8] = tested on: CHO; experiment: as above; assay type: cell-based, Chinese Hamster; settings: Cricetulus griseus; cell line CHO
Method: as §9, §10, §11, §12, §13

[9] = tested on: K562; experiment: as above; assay type: cell-based; settings: Homo sapiens; cell line K562
Method: as §9, §10, §11, §12, §13

[10] = tested on: L1210; experiment: as above; assay type: cell-based; settings: Mus musculus; cell line L1210
Method: as §9, §10, §11, §12, §13

[11] = tested on: MCF-7; experiment: as above; assay type: cell-based; settings: Homo sapiens, MCF7; cell line MCF-7
Method: as §9, §10, §11, §12, §13

[12] = tested on: T24; experiment: as above; assay type: cell-based; settings: Homo sapiens, T-24; cell line T24
Method: as §9, §10, §11, §12, §13

Compound | IC50 [1] [µM] | IC50 [2] [µM] | IC50 [3] [µM] | IC50 [4] [µM] | IC50 [5] [µM] | IC50 [6] [µM] | IC50 [7] [µM] | IC50 [8] [µM] | IC50 [9] [µM] | IC50 [10] [µM] | IC50 [11] [µM] | IC50 [12] [µM]
O=NN(CCCl)C(=O)NCCCl [Carmustine, carmustine] | 4.5 | 6.8 |  |  |  |  |  |  |  |  |  | 
CCCCCCCc1ccc(NC(=O)N[C@H](C)CCl)cc1 [Example 21] |  |  | 3.79 | 4.94 | 3.63 | 2.17 | 4.64 | 3.46 | 2.41 | 2.42 | 3.31 | 2.18
COc1ccc(NC(=O)N[C@H](C)CCl)cc1OC [Example 17] |  |  | 26.4 | > 100 | 34.9 | 14.8 | 43.6 | 32.2 | 9.62 | 10.3 | 25.1 | 12.4
CCCCCCOc1ccc(NC(=O)N[C@@H](CC)CCl)cc1 [Example 28] |  |  | 8.26 | 9.5 | 9.46 | 8.12 | 8.75 | 3.28 | 3.88 | 7.42 | 10.4 | 7.16
CCCC(CCl)NC(=O)Nc1ccc(C2CCCCC2)cc1 (racemic) [Example 25] |  |  | 4.14 | 6.04 | 4.3 | 3.03 | 6.37 | 2.12 | 4.93 | 4.12 | 5.05 | 4.24
